Measurements as given in US8962855B2 (priority 2011, dated 2015).

Tests used:
[1] = target: T1, CDK9/cyclin T1 (Homo sapiens, UniProt P50750); assay: biochemical
T1 construct: C-terminal 6His-tagged, full-length recombinant, human cdk9 (MW=44 kDa); made in house; host or cells: Sf21 insect cells (baculovirus)

[2] = tested on: SW-620; assay: cells; assay type: cell-based, human; conditions: for IC50: Homo sapiens, SW-620, 48 h, read-out: IC50, cellular anti-proliferative assay
[3] = tested on: HS 578T; assay: cells; assay type: cell-based, human; conditions: for IC50: Homo sapiens, Hs-578T, 48 h, read-out: IC50, cellular anti-proliferative assay
[4] = tested on: RPMI-8226; assay: cells; assay type: cell-based, human; conditions: for IC50: Homo sapiens, RPMI-8226, 48 h, read-out: IC50, cellular anti-proliferative assay
[5] = tested on: NCI-H322M; assay: cells; assay type: cell-based, human; conditions: for IC50: Homo sapiens, NCI-H322M, 48 h, read-out: IC50, cellular anti-proliferative assay
[6] = tested on: MDA-MB-231; assay: cells; assay type: cell-based, human; conditions: for IC50: Homo sapiens, MDA-MB-231, 48 h, read-out: IC50, cellular anti-proliferative assay
[7] = tested on: MDA-MB-435; assay: cells; assay type: cell-based, human; conditions: for IC50: Homo sapiens, MDA-MB-435, 48 h, read-out: IC50, cellular anti-proliferative assay
[8] = tested on: IGROV1; assay: cells; assay type: cell-based, human; conditions: for IC50: Homo sapiens, IGROV-1, 48 h, read-out: IC50, cellular anti-proliferative assay
[9] = tested on: M14; assay: cells; assay type: cell-based, human; conditions: for IC50: Homo sapiens, M14, 48 h, read-out: IC50, cellular anti-proliferative assay
[10] = target: T2, CDK2/cyclin E (Homo sapiens, UniProt P24941); assay: biochemical
T2 construct: C-terminal 6His-tagged, recombinant full-length CDK2 (MW=34 kDa); made in house; host or cells: Sf21 insect cells (baculovirus)

[11] = tested on: KM12; assay: cells; assay type: cell-based, human; conditions: for IC50: Homo sapiens, KM12, 48 h, read-out: IC50, cellular anti-proliferative assay
[12] = tested on: HT29; assay: cells; assay type: cell-based, human; conditions: for IC50: Homo sapiens, HT-29, 48 h, read-out: IC50, cellular anti-proliferative assay
[13] = target: T3, CDK3/cyclin E (Homo sapiens, UniProt Q00526); assay: biochemical
T3 construct: C-terminal 6His-tagged recombinant human full-length cdk3 (MW=36 kDa); made in house; host or cells: Sf21 insect cells (baculovirus)
T3 sequence (Q00526 whole entry): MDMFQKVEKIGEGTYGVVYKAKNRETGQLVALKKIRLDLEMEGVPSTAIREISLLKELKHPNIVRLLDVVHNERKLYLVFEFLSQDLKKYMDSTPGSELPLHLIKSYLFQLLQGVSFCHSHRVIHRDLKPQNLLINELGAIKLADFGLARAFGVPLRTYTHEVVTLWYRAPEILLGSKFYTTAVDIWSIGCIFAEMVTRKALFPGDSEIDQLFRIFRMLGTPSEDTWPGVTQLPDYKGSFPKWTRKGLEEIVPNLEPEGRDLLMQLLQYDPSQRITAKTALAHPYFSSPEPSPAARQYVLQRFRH
T3 sequence (P24864 whole entry, further chain): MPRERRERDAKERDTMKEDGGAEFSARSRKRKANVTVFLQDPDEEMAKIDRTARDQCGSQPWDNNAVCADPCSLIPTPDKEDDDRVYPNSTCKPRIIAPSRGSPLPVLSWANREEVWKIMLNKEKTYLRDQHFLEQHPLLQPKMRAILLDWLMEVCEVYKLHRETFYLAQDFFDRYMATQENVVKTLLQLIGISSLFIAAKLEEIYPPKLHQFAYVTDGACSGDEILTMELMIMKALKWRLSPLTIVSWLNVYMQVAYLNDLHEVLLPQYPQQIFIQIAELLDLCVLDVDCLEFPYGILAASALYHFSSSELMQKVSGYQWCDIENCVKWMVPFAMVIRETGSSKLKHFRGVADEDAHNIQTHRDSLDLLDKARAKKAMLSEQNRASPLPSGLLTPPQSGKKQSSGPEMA

T1 sequence (P50750 whole entry): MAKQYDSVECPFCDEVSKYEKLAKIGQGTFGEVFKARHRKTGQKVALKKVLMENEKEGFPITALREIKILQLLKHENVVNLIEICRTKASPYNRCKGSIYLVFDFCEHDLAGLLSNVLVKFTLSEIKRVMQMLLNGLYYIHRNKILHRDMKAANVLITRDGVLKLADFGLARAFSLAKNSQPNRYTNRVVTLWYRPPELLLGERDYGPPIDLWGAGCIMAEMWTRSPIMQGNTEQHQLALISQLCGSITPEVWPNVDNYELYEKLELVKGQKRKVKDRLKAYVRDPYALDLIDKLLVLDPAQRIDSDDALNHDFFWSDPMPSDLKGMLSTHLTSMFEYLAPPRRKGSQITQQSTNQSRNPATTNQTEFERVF
T1 sequence (O60563 whole entry partner): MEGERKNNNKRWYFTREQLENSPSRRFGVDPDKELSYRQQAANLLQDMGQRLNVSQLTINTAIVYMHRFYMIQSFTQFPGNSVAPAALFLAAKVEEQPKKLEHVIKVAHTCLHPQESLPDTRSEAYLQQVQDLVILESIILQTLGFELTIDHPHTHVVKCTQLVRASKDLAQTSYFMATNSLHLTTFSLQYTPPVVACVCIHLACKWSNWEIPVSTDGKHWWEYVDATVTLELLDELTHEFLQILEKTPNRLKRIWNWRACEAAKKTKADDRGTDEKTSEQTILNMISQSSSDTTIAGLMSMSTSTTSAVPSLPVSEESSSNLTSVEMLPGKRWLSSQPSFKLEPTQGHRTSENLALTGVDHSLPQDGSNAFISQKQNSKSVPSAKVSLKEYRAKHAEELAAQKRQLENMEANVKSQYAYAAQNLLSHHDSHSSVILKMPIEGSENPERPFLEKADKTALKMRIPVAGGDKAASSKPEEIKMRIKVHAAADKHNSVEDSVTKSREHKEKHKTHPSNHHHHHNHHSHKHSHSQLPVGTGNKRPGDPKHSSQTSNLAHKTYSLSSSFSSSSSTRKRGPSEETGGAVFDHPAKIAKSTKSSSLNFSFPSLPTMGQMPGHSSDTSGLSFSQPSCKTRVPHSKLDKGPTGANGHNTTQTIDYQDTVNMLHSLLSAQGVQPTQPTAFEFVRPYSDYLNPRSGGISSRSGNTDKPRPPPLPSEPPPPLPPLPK

SMILES	IC50 [2] [nM]	IC50 [3] [nM]	IC50 [4] [nM]	IC50 [5] [nM]	IC50 [6] [nM]	IC50 [7] [nM]	IC50 [8] [nM]	IC50 [9] [nM]	IC50 [11] [nM]	IC50 [12] [nM]	further results
CC(C)(C)c1cnc(CSc2cnc(NC(=O)Cc3ccc(N(CCCl)CCCl)cc3)s2)o1 [CY-201, 2-(4-(bis(2-chloroethyl)amino)phenyl)-N-(5-((5-tert-butyloxazol-2-yl)methylthio)thiazol-2-yl)acetamide]	98	148	269	148	219	79	107	58	91	107	IC50 [1]: 90.4 nM; Ratio [2]: 895.4; Ratio [3]: 1273.5; Ratio [4]: 280.5; Ratio [5]: 1380.4; Ratio [6]: 727.8; Ratio [7]: 1577.6; fold more potent than the parental drug Chlorambucil [7]: more than 1,500 fold; Ratio [8]: 1088.9; Ratio [9]: 1083.9; IC50 [10]: 2.7 nM; Ratio [11]: 1570.4; Ratio [12]: 1227.4; IC50 [13]: 45.6 nM
O=C(O)CCCc1ccc(N(CCCl)CCCl)cc1 [Chlorambucil, reference compound]	87500	188000	75500	204000	159000	125000	117000	62400	143000	132000	CDK IC50, CDK9/cyclin T1 (Chlorambucil) [1]: No activity; CDK IC50, CDK2/cyclin E (Chlorambucil) [10]: No activity; CDK IC50, CDK3/cyclin E (Chlorambucil) [13]: No activity
